Reference: US9572862B2, “Methods for promoting lipolysis and oxidation in liver and adipose tissue using catestatin” (The Regents of the University of California, priority 2012, dated 2017)
“Also recorded” adds a separate entry of the source. No end group written: not given here.

Tests used:
[1] = system: STAT3 and AMPK phosphorylation; assay: Stat3 and AMPK signaling in adipose explants from DIO mice; format: cell-based; conditions: CST in vivo, leptin 1 μM ex vivo 30 min
Procedure: FIG. 9. Stat3 and AMPK signaling in the adipose tissue explants from DIO and Ob/Ob mice treated with saline, CST (in vivo) and leptin (ex vivo). Explants from DIO mice (A&B) and Ob/Ob mice (C&D) were incubated with saline or leptin (1 μM) for 30 min, homogenized and immunoblotted for phospho- and total Stat3 (A&C) as well as phospho- and total AMPK signals (B&D). Results are presented as the ratio of signal strength of phospho-over total.
(§1) Adipose tissue explants were prepared as described (42). Epididymal fat pads from 12 hr fasted WT, Chga-KO, DIO and Ob/Ob mice with or without CST treatment were collected in Kreb-Ringer-phosphate (KRP) buffer containing 10 mM Hepes and 0.5% BSA. Tissues were minced to 1-2 mm size and treated with 100 nM CST, 1 μM leptin, or saline for 30 min (for signaling analysis) or 3 hr (for lipolysis and β-oxidation assays). Explants were also treated acutely with CST, leptin, a combination, or saline. At the end, incubation media were saved for analysis of glycerol and fatty acid release. Explants were washed prior to homogenization for immunoblotting and analysis of fatty acid oxidation.
Adipose tissue explants after treatments ex vivo and tissues from mice treated in vivo were homogenized in a buffer containing phosphatase and protease inhibitors (20 mM Tris/HCl (pH 7.5), 250 mM sucrose, 2 mM EDTA, 2 mM EGTA, 2 mM Na3VO4, 10 mM NaF, 2 mM Na4P2O7, 1 mM phenylmethylsulfonyl fluoride, 20 μg/ml leupeptin, 10 μg/ml aprotinin, and 1 μM LR-microcystin) as described (38,44). Homogenates were subjected to SDS-PAGE and immunoblotted. Primary antibodies for AMPK and Stat3 were from Cell Signaling Technology (Beverly, Mass.). The chemiluminescence kit was from Pierce (Rockford, Ill.).

[2] = system: CST-KO mice; assay: Palmitate oxidation and hepatic gene expression in CST-KO mice; format: in vivo
Description: FIG. 14. Palmitate oxidation. CST augmented palmitate oxidation in liver (A) and muscle (B) of both NCD- and 60% HFD-fed mice. Hepatic expression of genes involved in fatty acid oxidation such as Cpt1α(C), Acox (D) and Pparα (E). Augmented expression of these genes in Chga-KO mice indicates increased fatty acid oxidation in liver. In contrast, decreased expression in CST-KO mice indicates decreased fatty acid oxidation in liver, which was restored by supplementation with CST. Expression of lipogenic & gluconeogenic genes (F). Increased expression of Srebp1c in Chga-KO mice indicates increased lipogenesis. (G) Decreased expression of gluconeogenic gene Pepck in Chga-KO mice indicates inhibition of gluconeogenesis eventuating in increased sensitivity to insulin. In contrast, augmented expression of Pepck in CST-KO implicates increased gluconeogenesis eventuating in decreased sensitivity to insulin, which is normalized after CST supplementation. Figures in parentheses indicate number of animals.

[3] = system: Chga-KO mice; assay: Incorporation and oxidation of 14C-palmitate in vivo; conditions: for 14C-palmitate incorporation into lipids: CST 12 days
Procedure: FIG. 3. Effects of CST on lipogenesis from fatty acid and fatty acid oxidation in hepatic and adipose tissues. Incorporation of ^14C-palmitate into lipids in adipose (A) and liver (B) in Chga-KO mice after saline or CST treatment (5 μg/g BW, i.p./day) for 12 days. Partial oxidation to acid soluble metabolites (ASM) in adipose tissue (C) and liver (D). Complete oxidation to ^14CO2 in hepatocytes (HepG2) and adipocytes (3T3-L1) after saline or CST treatment (E).
Mice were injected with saline or CST (5 μg/g BW, i.p.; […]) for 12 days. One hr after the final injection, U-^14C-palmitate (5 μCi, 100 μl of 0.2 mM, i.p.) was injected and mice were sacrificed 3 hr later. Liver and adipose tissues (˜100 mg) were homogenized in 0.8 ml 3.5 N perchloric acid and extracted by vortexing in 3 ml of a mixture of methanol and chloroform (2:1, v/v). To the final homogenate, 1.2 ml of 3.5 N perchloric acid was added. The mixture was vortexed and centrifuged. The lower (chloroform) layer contained all the lipids derived from the incorporation of ^14C-palmitate, whereas the upper acidic layer contained partially oxidized acid-soluble metabolites (ASM) of ^14C-palmitate. The lower layer was further fractionated by thin layer chromatography on silica gel plates using hexane: diethyl ether: acetic acid (79:20:1, v/v/v) mixture as the developing solvent. Lipogenesis from palmitate was determined based on the radioactivity of the free palmitic acid band compared to other lipids (phospholipids, triglycerides, diacylglycerol, etc.) on the TLC plate. Complete oxidation of ^14C-palmitate was measured in cultured cells but not in mice.

[4] = system: adipose tissue explants from DIO mice; assay: Lipolysis and fatty acid oxidation in adipose explants of DIO mice; format: cell-based
Procedure: FIG. 8. Lipolysis and fatty acid oxidation in the adipose tissue explants of DIO and Ob/Ob mice after treatment with saline or CST for 16 days. Explants were incubated with saline or leptin (1 μM) for 3 hr and the concentrations of glycerol (A&C) and NEFA (B&D) released into the media from DIO (A&B) and Ob/Ob (C&D) explants were determined as a measure of lipolysis. Homogenates of the explants from DIO (E) and Ob/Ob […] were used to determine their capacity for oxidation of U-^14C-palmitate in response to the treatment with saline, CST, leptin and CST+leptin. The ^14CO2 released was captured and counted as the measure of fatty acid oxidation.
as §1
Oxidation of radiolabeled palmitate in the homogenates of adipose tissue explants as described previously (45). For oxidation studies of cultured cells, HepG2 (hepatocytes) and 3T3-L1 preadipocytes were obtained from ATCC and cultured following supplier's protocol. Confluent 3T3-L1 cultures were differentiated into adipocytes by treating with a cocktail of dexamethasone (100 nM), IBMX ([…]) and insulin (100 nM) for 10 days. Media were then switched to serum-free DMEM with 1% BSA. Hepatocytes were assayed for lipogenesis and fat oxidation in response to CST treatment. Serum-free cultures were treated with CST (100 nM) for 24 hr followed by a 2 hr incubation with U^14C-palmitate (0.5 μCi/ml). Fatty acid oxidation in cells was determined by modifying a published method (46). Specifically, the culture media in 24-well plates were acidified with 10% HClO4 after incubation with the labeled fatty acid and immediately covered with a thick filter paper sheet (cut to size) soaked in 2 N NaOH and placed underneath the plastic lid. The whole plate was sealed with parafilm. After further incubation for 2 hr, the filter paper sheet was marked as circles around the rim of the wells and then the circles were excised. The filter discs were counted to determine the amount of ^14CO2 absorbed in the papers. Cells in the culture wells were lysed in 1 N NaOH and protein content was assayed using Folin's reagent (BioRad, Hercules, Calif.).

[5] = CST-KO mice, CST supplementation
[6] = CST in vivo 16 days, leptin 1 μM ex vivo 3 hr

Q: SSMKLSFRARAYGFRGPGPQL [CST] was tested. Which AMPK phosphorylation [1] did it give?
A: Its AMPK phosphorylation is “not AMPK phosphorylation”.

Q: What about the STAT3 phosphorylation [1] of the same sequence?
A: The STAT3 phosphorylation was “stimulated only STAT3 phosphorylation”.

Q: What about the “palmitate oxidation in liver” value [2, 5] of the same sequence?
A: Its value is “stimulated; also recorded: augmented”.

Q: And the “palmitate oxidation in muscle” value [2, 5]?
A: Its value is “stimulated; also recorded: augmented”.

Q: And the “hepatic expression of Acox” value ([2]; liver of CST-KO mice)?
A: The value was “stimulated expression; also recorded: restored”.

Q: What about the “hepatic expression of Cpt1α” value ([2]; liver of CST-KO mice) of the same sequence?
A: Its value is “stimulated expression; also recorded: restored”.

Q: And the “hepatic expression of Pepck” value ([2]; liver of CST-KO mice)?
A: Its value is “suppressed the expression; also recorded: normalized”.

Q: What about the “hepatic expression of Pparα” value ([2]; liver of CST-KO mice) of the same sequence?
A: Its value is “stimulated expression; also recorded: restored”.

Q: And the “hepatic expression of Srebp1c” value ([2]; liver of CST-KO mice)?
A: Its value is “stimulated expression”.

Q: What about the “palmitate oxidation into ASMs” value ([3]; adipose tissue) of the same sequence?
A: The value was “stimulated”.

Q: What about the “14C-palmitate incorporation into lipids” value ([3]; adipose tissue) of the same sequence?
A: The value was “decreased”.

Q: What about the “palmitate oxidation into ASMs” value ([3]; liver) of the same sequence?
A: The value was “stimulated”.

Q: What about the “14C-palmitate incorporation into lipids” value ([3]; liver) of the same sequence?
A: Its value is “enhanced”.

Q: What about the palmitate oxidation [4] of the same sequence?
A: Its palmitate oxidation is “neither CST nor leptin alone stimulated oxidation”.

Q: And the “NEFA release in the media” value [4, 6]?
A: Its value is “not significant”.

Q: And the “glycerol release in the media” value [4, 6]?
A: Its value is “can release some glycerol in the media”.
